“Also recorded” adds a separate entry of the source.
How the values were obtained:
Format in all cases: cell-based, human
PTGER2 gene = test: RT-PCR of PTGER2 gene expression in treated neuroblastoma cell lines lacking PTGER2 expression
Protocol: Moreover, in order to investigate whether or not the lowered expression of the PTGER2 gene was due to DNA methylation, neuroblastoma cell lines lacking expression of the PTGER2 gene were used and treated with 1 μM or 5 μM of 5-aza-dCyd, a demethylating reagent, for 5 days and/or 100 ng/ml of TSA, a deacetylation inhibitor, for 12 hours. RNA was extracted from each cell line and the PTGER2 gene expression thereof was examined by RT-PCR (FIG. 1C).

[1] = test system: CpG island of the PTGER2 gene; test: Methylation status of the PTGER2 CpG island in neuroblastoma cells cultured with a demethylating agent; details: neuroblastoma cells cultured in the presence of 5-aza-dC
PTGDR gene = test: RT-PCR of PTGDR gene expression in treated neuroblastoma cell lines; details: three types of neuroblastoma cell lines, treatment with 5-aza-dCyd
GOTO and SJ-N-CG cells = test: WST cell viability assay in neuroblastoma cell lines; details: PTGER2 gene-nonexpressing cell lines (GOTO, SJ-N-CG); 0.01 mM, 0.1 mM, 1 mM for 72 hours
Protocol: Since the PTGER2 protein and G protein are coupled to be associated with increased intracellular cAMP concentration (Narumiya, et al., Physiol Rev, 79, 1193-1226, 1999), the association between intracellular cAMP concentration and proliferation of neuroblastoma was investigated. First, neuroblastoma cell lines lacking expression of the PTGER2 gene (GOTO and SJ-N-CG) and neuroblastoma cell lines expressing the PTGER2 gene (SJ-N-KP and KP-N-SIFA) were cultured in a growth medium with 0 mM, 0.01 mM, 0.1 mM, and 1 mM of 8-Br-cAMP for 72 hours. Then, the viability of these cells was detected by WST assay (FIG. 5).

Nc1ncn([C@H]2C[C@H](O)[C@@H](CO)O2)c(=O)n1 [5-aza-dCyd, 5-azadeoxycytidine]
PTGER2 gene expression (PTGER2 gene; 1 μM or 5 μM 5-aza-dCyd alone for 5 days): restored
PTGER2 gene expression (PTGER2 gene; 1 μM or 5 μM 5-aza-dCyd alone for 5 days, listed as 5-aza-dC): successfully restored
demethylation of the CpG island of the PTGER2 gene [1]: successfully demethylated
PTGDR gene expression (PTGDR gene): restored

Nc1ncnc2c1nc(Br)n2[C@@H]1O[C@@H]2COP(=O)(O)O[C@H]2[C@H]1O [8-Br-cAMP]
proliferation (cell viability by WST assay) (GOTO and SJ-N-CG cells): suppressed

CC(/C=C/C(=O)NO)=C\[C@@H](C)C(=O)c1ccc(N(C)C)cc1 [TSA, Trichostatin A]
PTGER2 gene expression (PTGER2 gene; 100 ng/ml TSA alone for 12 hours): restored; also recorded: increased level
